The source of these data is publication PMC8286840, “Identifying SARS-CoV-2 antiviral compounds by screening for small molecule inhibitors of Nsp3 papain-like protease” (Biochemical Journal, 2021).

Structures can show the parent of a compound that is named as a salt. Where two headings read alike, the source gives them in different places.

Test [1] deals with T1, SARS-CoV-2 PLpro (nsp3 1564–1878) (Severe acute respiratory syndrome coronavirus 2, UniProt P0DTD1). Put plainly: biochemical. Details: FRET-quenched peptide (Pro3) cleavage by PLpro, 10 min pre-incubation, slope over 20 min, normalised to no-compound control. The conditions noted are these: high concentration screen, read-out: % of control remaining.
For test [2], the target named is T1, SARS-CoV-2 PLpro (nsp3 1564–1878). Put plainly: biochemical. Details: FRET-quenched peptide (Pro3) cleavage by PLpro, 10 min pre-incubation, slope over 20 min, normalised to no-compound control. The conditions noted are these: low concentration screen, read-out: % of control remaining.

For `O=C(Nc1ccc(S(=O)(=O)Nc2nccs2)cc1)C(c1ccccc1)c1ccccc1` [ICA-121431], the remaining activity at 3.75 µM in test [1] (Well no.=7878) amounted to 99.6%. Also, the remaining activity at 1.25 µM in test [2] (Well no.=7878) stood at 98.2%.
As to `Cc1ccc(OC[C@H](O)[C@@H](C)NC(C)C)c2c1CCC2` [ICI 118,551 hydrochloride], the remaining activity at 3.75 µM in test [1] (Well no.=1113) worked out at 102%. In addition, in test [2] (Well no.=1113), the remaining activity at 1.25 µM was 100%.
For `CN(C(=O)Cc1ccc(Cl)c(Cl)c1)C(CN1CCCC1)c1cccc(OCC(=O)O)c1` (stereo not drawn) [ICI 204,448 hydrochloride], the remaining activity at 3.75 µM in test [1] (Well no.=1065) was determined as 104%. In test [2] (Well no.=1065), the remaining activity at 1.25 µM was found to be 101%.
As for `O=C(O)CC/C=C\C[C@H]1CO[C@@H](c2ccccc2Cl)O[C@H]1c1ccccc1O` [ICI 192605], in test [1] (Well no.=5873), the remaining activity at 3.75 µM amounted to 100%. For the same compound, in test [2] (Well no.=5873), the remaining activity at 1.25 µM was 98.7%.
For `Nc1nonc1C(=Nc1ccc(F)c(Cl)c1)NO` [IDO5L], the remaining activity at 3.75 µM in test [1] (Well no.=8263) was 103%. The remaining activity at 1.25 µM in test [2] (Well no.=8263) worked out at 107%.
With `Nc1nonc1C(=Nc1ccc(F)c(Br)c1)NO` [IDO-IN-1], the remaining activity at 3.75 µM in test [1] (Well no.=8359) worked out at 99.9%. Further, in test [2] (Well no.=8359), the remaining activity at 1.25 µM was found to be 99.2%.
For the compound `Cc1ccc(NC(=O)Nc2cc(-c3ccccc3-c3nn[nH]n3)ccc2N(CC(C)C)CC(C)C)cc1` [IDO-IN-2], the remaining activity at 3.75 µM in test [1] (Well no.=8123) amounted to 94.6%. For the same compound, in test [2] (Well no.=8123), the remaining activity at 1.25 µM was found to be 99.9%.
On to `NCCNc1nonc1C(=Nc1ccc(F)c(Br)c1)NO` [IDO-IN-3], for which the remaining activity at 3.75 µM in test [1] (Well no.=8693) amounted to 101%. For the same compound, in test [2] (Well no.=8693), the remaining activity at 1.25 µM is 107%.
Consider `Cc1ccc(NC(=O)Nc2cc([C@H]3C[C@H]3C(=O)O)ccc2N(CC(C)C)CC(C)C)cc1` [IDO-IN-4], for which the remaining activity at 3.75 µM in test [1] (Well no.=8647) came to 106%. Moreover, the remaining activity at 1.25 µM in test [2] (Well no.=8647) was determined as 104%.
In the case of `CSCCNc1nonc1-c1noc(=O)n1-c1ccc(F)c(Br)c1` [IDO-IN-12], the remaining activity at 3.75 µM in test [1] (Well no.=8177) turned out to be 99.7%. For the same compound, the remaining activity at 1.25 µM in test [2] (Well no.=8177) turned out to be 105%.
For `NCCCCCNCC12CC3CC(CC(C3)C1)C2` [IEM 1754 dihydrobroMide], the remaining activity at 3.75 µM in test [1] (Well no.=5175) turned out to be 99.2%. Further, the remaining activity at 1.25 µM in test [2] (Well no.=5175) was determined as 97.7%.
On to `C[N+](C)(C)CCCCCNCC12CC3CC(CC(C3)C1)C2` [IEM-1460], for which, in test [1] (Well no.=524), the remaining activity at 3.75 µM amounted to 105%. The remaining activity at 1.25 µM in test [2] (Well no.=524) worked out at 105%.
With `O=C(c1ccc(Nc2nccc(-c3cc4ccccc4s3)n2)cc1)N1CCC(N2CCCC2)CC1` [IKK 16 - N-(4-Pyrrolidin-1-yl-piperidin-1-yl)-[4-(4-benzo[b]thiophen-2-yl-pyrimidin-2-ylamino)phenyl]carboxamide hydrochloride], the remaining activity at 3.75 µM in test [1] (Well no.=2542) was determined as 103%. For the same compound, the remaining activity at 1.25 µM in test [2] (Well no.=2542) came to 100%.
For the compound `O=C(Nc1cc(Cl)cc2c1[nH]c1cnccc12)c1cccnc1` [IKK Inhibitor X], in test [1] (Well no.=2445), the remaining activity at 3.75 µM was found to be 101%. Besides, in test [2] (Well no.=2445), the remaining activity at 1.25 µM came out at 97.8%.
In the case of `N#Cc1c(C2CCNCC2)cc(-c2c(O)cccc2OCC2CC2)nc1N` [IKK-2 Inhibitor VIII], the remaining activity at 3.75 µM in test [1] (Well no.=2441) worked out at 108%. In addition, in test [2] (Well no.=2441), the remaining activity at 1.25 µM was 104%.
For `NC(=O)Nc1sc(-c2ccccc2)cc1C(N)=O` [IKK-2 Inhibitor VI], the remaining activity at 3.75 µM in test [1] (Well no.=2437) was determined as 106%. For the same compound, the remaining activity at 1.25 µM in test [2] (Well no.=2437) came to 107%.
With `O=C(Nc1cc(C(F)(F)F)cc(C(F)(F)F)c1)c1cc(Cl)ccc1O` [IKK-2 Inhibitor V], in test [1] (Well no.=2435), the remaining activity at 3.75 µM came out at 102%. In addition, the remaining activity at 1.25 µM in test [2] (Well no.=2435) stood at 99.8%.
On to `NC(=O)Nc1cc(-c2ccccc2)sc1C(N)=O` [IKK-2 Inhibitor XI], for which the remaining activity at 3.75 µM in test [1] (Well no.=2838) turned out to be 103%. Also, the remaining activity at 1.25 µM in test [2] (Well no.=2838) was 99.2%.
Take `Cc1[nH]c2ccccc2c1C1=C(NCCc2ccc(F)cc2)C(=O)N(C)C1=O` [IM-12]: the remaining activity at 3.75 µM in test [1] (Well no.=5776) was 100%. The remaining activity at 1.25 µM in test [2] (Well no.=5776) came to 99.9%.
On to `O=C(Nc1cc(C(F)(F)F)cc(C(F)(F)F)c1)c1cc(Cl)ccc1O` [IMD 0354 - N-[3,5-Bis(trifluoromethyl)phenyl]-5-chloro-2-hydroxybenzamide], for which the remaining activity at 3.75 µM in test [1] (Well no.=2586) was 82.3%. Further, the remaining activity at 1.25 µM in test [2] (Well no.=2586) is 86.3%.
Turning to `Fc1ccc(CN(C2=NCCN2)c2c(Cl)cccc2Cl)cc1` [IMID-4F hydrochloride], the remaining activity at 3.75 µM in test [1] (Well no.=718) came to 96.8%. In addition, the remaining activity at 1.25 µM in test [2] (Well no.=718) was 96.3%.
For the compound `COc1ccc(/C=C2\COc3ccc(C)cc3C2=O)cc1O` [IMS2186], in test [1] (Well no.=5394), the remaining activity at 3.75 µM worked out at 97.5%. Also, in test [2] (Well no.=5394), the remaining activity at 1.25 µM is 97.1%.
`CCO[C@H]1CN([C@H]2CC[C@@](O)(c3ccc4c(c3)OCO4)CC2)C[C@@H]1NC(=O)CNC(=O)c1cccc(C(F)(F)F)c1` [INCB3344]: the remaining activity at 3.75 µM in test [1] (Well no.=8605) was found to be 102%. For the same compound, the remaining activity at 1.25 µM in test [2] (Well no.=8605) was found to be 108%.
Regarding `CNC(=O)c1ccc(-c2cnc3ncc(Cc4ccc5ncccc5c4)n3n2)cc1F` [INCB28060], in test [1] (Well no.=5119), the remaining activity at 3.75 µM amounted to 103%. The remaining activity at 1.25 µM in test [2] (Well no.=5119) came out at 102%.
On to `COc1ccc([C@]2(O)CC[C@@H](N3CC[C@@H](NC(=O)CNC(=O)c4cccc(C(F)(F)F)c4)C3)CC2)cn1` [INCB 3284], for which, in test [1] (Well no.=8271), the remaining activity at 3.75 µM came out at 99.4%. Besides, in test [2] (Well no.=8271), the remaining activity at 1.25 µM came to 102%.
On to `CC(C)n1nc(-c2ccc3oc(N)nc3c2)c2c(N)ncnc21` [INK 128 (MLN0128)], for which, in test [1] (Well no.=5133), the remaining activity at 3.75 µM amounted to 104%. Further, the remaining activity at 1.25 µM in test [2] (Well no.=5133) was determined as 98.6%.
As for `O=C(O)c1ccc(O)c2ncccc12` [IOX1], in test [1] (Well no.=5529), the remaining activity at 3.75 µM stood at 104%. In addition, in test [2] (Well no.=5529), the remaining activity at 1.25 µM was determined as 102%.
On to `O=C(O)CNC(=O)c1c(O)c2ccccc2n(Cc2ccccc2)c1=O` [IOX2], for which, in test [1] (Well no.=5227), the remaining activity at 3.75 µM came out at 95.1%. The remaining activity at 1.25 µM in test [2] (Well no.=5227) is 101%.
On to `O=[N+]([O-])c1ccc(CNc2nc(NCc3cccc(C(F)(F)F)c3)nc3nc[nH]c23)cc1` [IP3K Inhibitor], for which the remaining activity at 3.75 µM in test [1] (Well no.=2477) was 105%. In addition, in test [2] (Well no.=2477), the remaining activity at 1.25 µM amounted to 103%.
`C[C@H](Nc1ncnc2nc[nH]c12)c1cc2cccc(Cl)c2c(=O)n1-c1ccccc1` [IPI-145 (INK1197)]: the remaining activity at 3.75 µM in test [1] (Well no.=5170) worked out at 99.5%. Moreover, the remaining activity at 1.25 µM in test [2] (Well no.=5170) is 102%.
With `CC1(C)CN2C(CSC(=NC3CCCCC3)NC3CCCCC3)=CSC2=N1` [IT1t (dihydrochloride)], the remaining activity at 3.75 µM in test [1] (Well no.=6942) came out at 93.3%; in test [1] (Well no.=8463), 106%. Also, the remaining activity at 1.25 µM in test [2] (Well no.=6942) amounted to 94.3%; in test [2] (Well no.=8463) it was 107%.
With `CCN(CC)Cc1ccc2cc(COC(=O)Nc3ccc(C(=O)NO)cc3)ccc2c1` [ITF2357 (Givinostat)], the remaining activity at 3.75 µM in test [1] (Well no.=5110) worked out at 106%. Besides, in test [2] (Well no.=5110), the remaining activity at 1.25 µM was 102%.
